The NIST ThermoML archive (doi:10.1021/je034087q)

Experiment: xn = mol fraction of the nth substance listed
Details: Fluid (supercritical or subcritical phases), x2 = 0.901

CCCCC [pentane] + O=C=O
mass density [kg/m3]
Details | 326.15 K | 328.15 K
8540 kPa | 461 | –
8560 kPa | 465 | –
8580 kPa | 469 | –
8610 kPa | 472 | –
8630 kPa | 476 | –
8650 kPa | – | 431
8670 kPa | 481 | –
8690 kPa | – | 436
8700 kPa | 486 | –
8720 kPa | – | 442
8740 kPa | 491 | –
8760 kPa | – | 448
8780 kPa | 496 | –
8830 kPa | – | 459
8840 kPa | 503 | –
8870 kPa | 509 | –
8880 kPa | – | 465
8920 kPa | 516 | –
8930 kPa | – | 473
8970 kPa | 520 | 475
9010 kPa | 524 | –
9030 kPa | – | 483
9080 kPa | 531 | –
9100 kPa | – | 491
9160 kPa | 538 | 499
9220 kPa | 544 | –
9230 kPa | – | 507
9320 kPa | – | 517
9350 kPa | 551 | –
9410 kPa | – | 524
9420 kPa | 558 | –
9500 kPa | 562 | –
9530 kPa | – | 533
9560 kPa | 567 | –
9630 kPa | – | 542
9680 kPa | 573 | –
9760 kPa | 579 | 552
9870 kPa | 583 | –
9930 kPa | – | 562
9990 kPa | 590 | –
10030 kPa | – | 568
10130 kPa | 595 | 572
10230 kPa | – | 579
10250 kPa | 601 | –
10350 kPa | – | 584
10380 kPa | – | 586
10410 kPa | 608 | –
10490 kPa | – | 590
10580 kPa | – | 594
10720 kPa | 618 | –
10750 kPa | – | 601
10880 kPa | – | 606
10920 kPa | 625 | –
11060 kPa | – | 612
11140 kPa | – | 614
11150 kPa | 631 | –
11380 kPa | 638 | –
11500 kPa | – | 625
11660 kPa | 645 | –
11670 kPa | – | 629
11800 kPa | – | 634
11950 kPa | 652 | –
11970 kPa | – | 639
12180 kPa | – | 642
12280 kPa | 658 | –
12340 kPa | – | 646
12560 kPa | – | 652
12630 kPa | 666 | –
12760 kPa | – | 655
13020 kPa | – | 661
13030 kPa | 673 | –
13280 kPa | – | 665
13480 kPa | 680 | –
13560 kPa | – | 669
13790 kPa | – | 674
13950 kPa | 686 | –
14260 kPa | – | 682
14540 kPa | 696 | –
14800 kPa | 700 | –
14810 kPa | – | 691
